# Test results as given in paper PMC6756013, “B591, a novel specific pan-PI3K inhibitor, preferentially targets cancer stem cells” (Oncogene, 2019).
# Legend:
# [1] = tested on: MDA-MB-231 and SUM-159PT monolayer and mammosphere cells; assay: Apoptosis of monolayer versus mammosphere cells (PE-Annexin V/7-AAD); type: cell-based, human; details: 48 h
# Experimental: Cells were treated with indicated agents for 48 h, and cells were harvested and processed for apoptosis assay using the PE-Annexin V/7-AAD Apoptosis Detection Kit. d Representative flow cytometry plots of apoptosis inducing activity of B591 (10 μM) and paclitaxel (10 nM) on monolayer and mammosphere MDA-MB-231 cells. e B591 preferentially targeted CD44^high/CD24^low cells. Cells were treated with B591 or paclitaxel for 2 days. Following a 4-day recovery period, cells were co-stained with CD44 and CD24 antibodies and subjected to FACS analysis. Representative flow cytometry plots show the effect of B591 on CD44^high/CD24^low population in MDA-MB-231 cells in vitro. f B591 decreased mammosphere forming efficiency. Primary MDA-MB-231 mammospheres were treated with B591 or paclitaxel for 48 h. Results of the secondary mammosphere-formation assay are shown. Scale bar represents 40 μm. g B591 decreased the expression of CSC markers in MDA-MB-231 cells. Cells were treated with B591 or paclitaxel for 2 days. […] They label a gated population in plots with axes CD44 and CD24. / Panel E: DMSO is the vehicle control. Its printed value is included all the same.
# Supplementary Fig. S10. B591 preferentially targets CSCs. […] Following a 4-day recovery period, the expression of CSC markers was analyzed with western blot analysis.
# [2] = tested on: SUM-159PT cells; assay: Mammosphere formation after paclitaxel pre-treatment; type: cell-based; details: 8 nM Paclitaxel or 8 nM Paclitaxel plus 5 μM B591 for 24 h
# Experimental: Fig. 6 B591 reduces breast tumor metastasis and recurrence. a Representative images show the effect of B591 (8 mg/kg) on lung metastasis of 4T1 cells, and data from six mice were plotted. b SUM-159PT cells were respectively treated with the indicated agents (8 nM Paclitaxel, 8 nM Paclitaxel plus 5 μM B591) for 24 h, the cells were then cultured for mammospheres. Representative images were shown, and data from two independent experiments were plotted. c–f SUM-159PT xenografts (n = 7) were treated with 4 mg/kg Paclitaxel, or 10 mg/kg B591, or both for 2 weeks, then ended the treatment and waited for tumor recurrence. Tumor volume (c) and body weight (d) were measured every 2 days after treatment, and tumors were photographed (e) and weighted (f) at the end of the experiment. ^*p < 0.05, ^**p < 0.01 versus indicated groups
# Based on the finding that B591 preferentially targets CSCs, we supposed that by eliminating the breast CSCs, B591 might delay breast tumor recurrence after initial treatment with chemotherapy drugs. Paclitaxel is a first-line chemotherapeutic agent used for breast cancer therapy. SUM-159PT cells were pre-treated with paclitaxel, and then the cells remaining alive were cultured for mammospheres.
# [3] = tested on: RD cells; assay: Apoptosis assay (Annexin V-FITC); type: cell-based, human; details: 48 h
# Experimental: Cells were seeded in six-well plates at a density of 2×10^5 cells per well and kept overnight at 37℃ humidified incubator with 5% CO2. The next day, cells were treated with B591 for 48 h. Cells were then collected and stained using Annexin V-FITC Apoptosis Detection Kit I (BD Pharmingen™, Franklin Lakes, NJ, USA) according to manufacturer’s instruction. In brief, cells were washed with cold PBS twice and with binding buffer once, about 1×10^5 cells were resuspended in 100 μl Annexin-V binding buffer, followed by incubation with FITC conjugated Annexin V and propidium iodide (PI) for 15 min at room temperature in the dark. The apoptosis assay was performed by using BD FACSCalibur flow cytometry.
# Supplementary Fig. S8. B591 induces G0/G1 cell cycle arrest and apoptosis in tumor cells. […] The cells were harvested and analyzed for cell cycle profile. […] The cells were harvested and processed for apoptosis assay using the Annexin V-FITC Apoptosis Detection Kit. (D) Quantification of flow cytometry analysis of apoptosis. Results were presented as mean ± SD (n = 3). ^***p <0.001, difference versus DMSO-treated control group.
# [4] = tested on: eIF4E [nuc:cyto] ratio in SMMC7721, HepG2, MCF7, MDA-MB-231 and A549 cells; assay: Immunofluorescence and high content assay of eIF4E localization; type: cell-based; details: 5 h, five human cancer cell lines
# Description: The mRNA 5′ cap-binding protein eukaryotic initiation factor 4E (eIF4E) is a key regulator of cap-dependent translation initiation in the cytoplasm. Elevated level of eIF4E has been implicated in oncogenic transformation and tumorigenesis. The availability of eIF4E is tightly controlled through regulated interaction with 4E-BPs. eIF4E is predominantly cytoplasmic in mammalian cells, whereas serum-starvation and/or rapamycin-treatment: conditions that suppress mTOR signaling induces an accumulation of eIF4E within the nucleus. By using immunofluorescence assay, we assessed the effect of B591 on eIF4E subcellular localization of eIF4E. […] Further, five human cancer cell lines (SMMC7721, HepG2, MCF7, MDA-MB-231, and A549) were respectively treated with different concentrations of B591 for 5 h and eIF4E [nuc:cyto] ratios were determined by a high content assay using Thermo Scientific Cellomics ArrayScan VTI HCS.
# Cells were seeded in 96-well plates (5,000 cells/well) and treated with DMSO or B591 for 5 h. Cells were then fixed with 4 % paraformaldehyde and followed by permeabilization with 0.1% triton X-100 and blocking in 2% bovine serum albumin in PBS. […] The subcellular location of eIF4E and the eIF4E nuclear–cytoplasmic intensity of each field per well was monitored and analyzed by using ArrayScan® VTI HCS Reader according to manufacturer’s instruction.
smiles,measurement,setting,value
"Cc1cc2c(cc1C)[n+](Cc1ccccc1Br)cn2Cc1ccc2c(c1)CCO2.[Br-] [B591, 3-(2-bromobenzyl)-1-((2,3-dihydrobenzofuran-5-yl)methyl) -5,6-dimethyl-1H-benzo[d]imidazol-3-ium bromide]","Apoptosis induction, mammosphere versus monolayer populations",[1],preferentially induced the apoptosis of mammosphere populations
same,Formation of mammospheres / paclitaxel-enriched CSCs,[2],the paclitaxel-enriched CSCs were effectively eliminated
same,Apoptosis induction,[3],significant apoptosis inducing effect
same,eIF4E [nuc:cyto] ratio,[4],increased eIF4E [nuc:cyto] ratios in all the five cancer cells in a dose-dependent manner
